# From US11407767B2, “Heterocyclyl substituted pyrrolopyridines that are inhibitors of the CDK12 kinase” (The University of Nottingham, priority 2017, dated 2022)
# Where a name gives a salt, the structure may show the parent alone.
# Molecular target: CDK12/CycK (Homo sapiens, UniProt Q9NYV4)
# Experiment: Inhibition of CDK12 (ADP-Glo kinase assay)
# Assay type: biochemical
# Conditions: 60 nM CDK12/CycK, 30 minutes pre-incubation, 1 μM ATP, 0.5 μM RBER-IRStide substrate, 1 h at 25° C., read-out: CDK12/cyclin K IC50
# Procedure: Assay buffer comprised 50 mM HEPES pH 7.5, 1 mM DTT, 20 mM MgCl2, 3 mM MnCl2, 3 μM Na3VO4 and 50 μg/ml PEG8000. Kinase reactions were carried out in 384-well Optiplates™ (PerkinElmer 6007299). Test compounds were dissolved & diluted in dimethyl sulfoxide (DMSO) and cross diluted into assay buffer with a final DMSO concentration of 1% (v/v) in the assay. Test compounds (or 1% DMSO in control and blank wells) were pre-incubated with 60 nM CDK12/CycK for 30 minutes. After this time 1 μM Adenosine-5′-triphosphate (ATP) and 0.5 μM RBER-IRStide substrate (ProQinase 0863-0000-1) were added to commence the kinase reaction. Incubations were carried out for 1 h at 25° C. with kinase activity determined using the ADP-Glo™ reagent from Promega according to the manufacturer's instructions. Light generated is proportional to kinase activity and measured using a luminometer (EnVision, PerkinElmer). The signal obtained in the blank wells (containing no kinase) was subtracted from all other wells and IC50 values were determined by fitting a sigmoidal curve to % inhibition of control versus Log10 compound concentration.
# CDK12/CycK, sequence (Q9NYV4 whole entry): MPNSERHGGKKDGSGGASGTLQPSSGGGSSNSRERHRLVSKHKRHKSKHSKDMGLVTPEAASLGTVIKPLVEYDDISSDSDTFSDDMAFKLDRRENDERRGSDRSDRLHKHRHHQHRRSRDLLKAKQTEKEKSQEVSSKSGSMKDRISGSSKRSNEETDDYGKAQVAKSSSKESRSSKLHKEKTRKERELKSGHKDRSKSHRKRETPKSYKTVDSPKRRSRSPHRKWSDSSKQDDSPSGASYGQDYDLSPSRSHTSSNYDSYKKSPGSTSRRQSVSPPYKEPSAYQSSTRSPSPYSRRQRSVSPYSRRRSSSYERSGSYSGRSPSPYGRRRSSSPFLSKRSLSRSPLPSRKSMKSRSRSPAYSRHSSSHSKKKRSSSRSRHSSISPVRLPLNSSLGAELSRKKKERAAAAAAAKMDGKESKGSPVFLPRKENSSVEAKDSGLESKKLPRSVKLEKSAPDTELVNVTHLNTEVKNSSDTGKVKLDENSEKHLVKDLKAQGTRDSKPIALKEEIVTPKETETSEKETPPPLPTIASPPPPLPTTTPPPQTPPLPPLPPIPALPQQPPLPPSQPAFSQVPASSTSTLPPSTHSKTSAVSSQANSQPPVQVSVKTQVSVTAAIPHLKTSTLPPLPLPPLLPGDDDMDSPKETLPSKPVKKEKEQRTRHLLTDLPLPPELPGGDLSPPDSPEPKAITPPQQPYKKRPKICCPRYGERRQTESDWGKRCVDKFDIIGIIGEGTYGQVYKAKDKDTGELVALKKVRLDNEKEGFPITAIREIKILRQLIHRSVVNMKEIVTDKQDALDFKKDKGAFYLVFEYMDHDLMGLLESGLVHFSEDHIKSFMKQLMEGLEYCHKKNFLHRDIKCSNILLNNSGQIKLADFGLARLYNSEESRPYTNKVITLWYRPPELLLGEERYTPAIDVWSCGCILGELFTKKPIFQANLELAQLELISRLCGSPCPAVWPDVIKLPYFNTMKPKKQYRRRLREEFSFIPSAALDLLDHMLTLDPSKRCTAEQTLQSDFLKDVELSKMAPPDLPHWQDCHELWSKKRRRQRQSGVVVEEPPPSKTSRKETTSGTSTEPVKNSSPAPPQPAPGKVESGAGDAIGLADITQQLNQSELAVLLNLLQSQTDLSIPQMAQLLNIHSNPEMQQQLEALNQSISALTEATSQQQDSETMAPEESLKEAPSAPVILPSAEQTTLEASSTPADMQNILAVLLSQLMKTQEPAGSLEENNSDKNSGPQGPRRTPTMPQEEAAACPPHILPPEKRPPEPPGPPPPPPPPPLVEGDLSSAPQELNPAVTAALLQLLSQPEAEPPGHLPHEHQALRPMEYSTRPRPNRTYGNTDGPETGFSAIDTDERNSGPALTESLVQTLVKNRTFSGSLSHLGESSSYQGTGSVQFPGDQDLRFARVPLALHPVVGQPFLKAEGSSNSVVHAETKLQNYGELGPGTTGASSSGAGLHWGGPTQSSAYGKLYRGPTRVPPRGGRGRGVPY
# CDK12/CycK, sequence (O75909 whole entry partner): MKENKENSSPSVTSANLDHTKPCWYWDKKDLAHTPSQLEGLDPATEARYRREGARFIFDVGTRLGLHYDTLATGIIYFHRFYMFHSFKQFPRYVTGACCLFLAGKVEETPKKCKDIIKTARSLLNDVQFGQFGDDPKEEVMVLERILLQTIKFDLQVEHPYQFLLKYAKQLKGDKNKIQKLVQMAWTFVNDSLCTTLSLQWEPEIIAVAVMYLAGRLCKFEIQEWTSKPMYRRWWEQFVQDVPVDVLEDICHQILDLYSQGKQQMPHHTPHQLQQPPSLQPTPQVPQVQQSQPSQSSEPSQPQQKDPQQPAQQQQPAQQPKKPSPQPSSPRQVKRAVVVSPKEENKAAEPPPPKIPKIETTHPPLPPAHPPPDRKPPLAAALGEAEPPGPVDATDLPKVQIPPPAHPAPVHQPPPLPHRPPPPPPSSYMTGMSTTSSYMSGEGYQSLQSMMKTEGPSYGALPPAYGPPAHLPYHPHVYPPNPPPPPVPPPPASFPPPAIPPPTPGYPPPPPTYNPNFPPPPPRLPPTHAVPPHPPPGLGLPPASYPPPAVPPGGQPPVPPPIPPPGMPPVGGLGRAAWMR
row,Compound,IC50 [nM]
1,"Nc1cccc(-c2cc3c(-c4cnn5ncccc45)ccnc3[nH]2)c1 [Example 114, 3-(4-(Pyrazolo[1,5-b]pyridazin-3-yl)-1H-pyrrolo[2,3-b]pyridin-2-yl)aniline]",< 100
2,"C=CC(=O)Nc1cccc(C(=O)Nc2cccc(-c3cc4c(-c5cnn6ncccc56)ccnc4[nH]3)c2)c1 [Example 115, 3-Acrylamido-N-(3-(4-(pyrazolo[1,5-b]pyridazin-3-yl)-1H-pyrrolo[2,3-b]pyridin-2-yl)phenyl)benzamide]",< 100
3,"O=C(NCc1cc2c(-c3cnn4ncccc34)ccnc2[nH]1)C1CC1 [Example 116, N-((4-(Pyrazolo[1,5-b]pyridazin-3-yl)-1H-pyrrolo[2,3-b]pyridin-2-yl)methyl)cyclopropanecarboxamide]",1000 to 30000
4,"CN(C)CC(=O)NCc1cc2c(-c3cnn4ncccc34)ccnc2[nH]1 [Example 117, 2-(Dimethylamino)-N-((4-(pyrazolo[1,5-b]pyridazin-3-yl)-1H-pyrrolo[2,3-b]pyridin-2-yl)methyl)acetamide Formate Salt]",1000 to 30000
5,"O=S(=O)(NCc1cc2c(-c3cnn4ncccc34)ccnc2[nH]1)C1CC1 [Example 118, N-((4-(Pyrazolo[1,5-b]pyridazin-3-yl)-1H-pyrrolo[2,3-b]pyridin-2-yl)methyl)cyclopropanesulfonamide]",1000 to 30000
6,"CC(C)(C)OC(=O)N1CCC(c2cc3c(-c4cnn5ncccc45)ccnc3[nH]2)C1 (centres unmarked) [Example 119, tert-Butyl 3-(4-(pyrazolo[1,5-b]pyridazin-3-yl)-1H-pyrrolo[2,3-b]pyridin-2-yl)pyrrolidine-1-carboxylate]",100 to 1000
7,"c1cnn2ncc(-c3ccnc4[nH]c(C5CCNC5)cc34)c2c1 (centres unmarked) [Example 122, 3-[2-(pyrrolidin-3-yl)-1H-pyrrolo[2,3-b]pyridine-4-yl)pyrazolo[1,5-b]pyridazine]",< 100
8,"C#CC(=O)Nc1ccc(C(=O)N2CCC(c3cc4c(-c5cnn6ncccc56)ccnc4[nH]3)C2)cc1 (centres unmarked) [Example 128, N-(4-(3-(4-(Pyrazolo[1,5-b]pyridazin-3-yl)-1H-pyrrolo[2,3-b]pyridin-2-yl)pyrrolidine-1-carbonyl)phenyl)propiolamide]",< 100
9,"OCC(O)COc1cnn2ncc(-c3ccnc4[nH]ccc34)c2c1 (centres unmarked) [Example 131, 3-((3-(1H-Pyrrolo[2,3-b]pyridin-4-yl)pyrazolo[1,5-b]pyridazin-5-yl)oxy)propane-1,2-diol]",1000 to 30000
10,"Clc1cnc2[nH]ccc2c1-c1cnn2ncccc12 [Example 132, 3-(5-Chloro-1H-pyrrolo[2,3-b]pyridin-4-yl)pyrazolo[1,5-b]pyridazine]",100 to 1000
11,"CCn1cc(-c2ccnc3[nH]ccc23)nn1 [Example 133, 4-(1-Ethyl-1H-1,2,3-triazol-4-yl)-1H-pyrrolo[2,3-b]pyridine]",1000 to 30000
12,"c1ccc(Cn2cc(-c3ccnc4[nH]ccc34)nn2)cc1 [Example 134, 4-(1-Benzyl-1H-1,2,3-triazol-4-yl)-1H-pyrrolo[2,3-b]pyridine]",1000 to 30000
13,"COc1ccc(Cn2cc(-c3ccnc4[nH]ccc34)nn2)cc1 [Example 135, 4-(1-(4-Methoxybenzyl)-1H-1,2,3-triazol-4-yl)-1H-pyrrolo[2,3-b]pyridine]",1000 to 30000
14,"c1cncc(Cn2cc(-c3ccnc4[nH]ccc34)nn2)c1 [Example 136, 4-(1-(Pyridin-3-ylmethyl)-1H-1,2,3-triazol-4-yl)-1H-pyrrolo[2,3-b]pyridine]",1000 to 30000
15,"CN(C)C/C=C/C(=O)Nc1cccc(C(=O)N2CCC(c3cc4c(-c5cnn6ncccc56)ccnc4[nH]3)C2)c1 (centres unmarked) [Example 142, (E)-4-(Dimethylamino)-N-(3-(3-(4-(pyrazolo[1,5-b]pyridazin-3-yl)-1H-pyrrolo[2,3-b]pyridin-2-yl)pyrrolidine-1-carbonyl)phenyl)but-2-enamide]",< 100
16,"C=CC(=O)N1CCC(C(=O)N2CCC(c3cc4c(-c5cnn6ncccc56)ccnc4[nH]3)C2)CC1 (centres unmarked) [Example 143, 1-(4-(3-(4-(Pyrazolo[1,5-b]pyridazin-3-yl)-1H-pyrrolo[2,3-b]pyridin-2-yl)pyrrolidine-1-carbonyl)piperidin-1-yl)prop-2-en-1-one]",< 100

row,Compound,IC50 [nM]
1,"C#CC(=O)N1CCC(C(=O)N2CCC(c3cc4c(-c5cnn6ncccc56)ccnc4[nH]3)C2)CC1 (centres unmarked) [Example 147, 1-(4-(3-(4-(Pyrazolo[1,5-b]pyridazin-3-yl)-1H-pyrrolo[2,3-b]pyridin-2-yl)pyrrolidine-1-carbonyl)piperidin-1-yl)prop-2-yn-1-one]",< 100
2,C=CC(=O)Nc1ccc(C(=O)N2CC[C@H](c3cc4c(-c5cnn6ncccc56)ccnc4[nH]3)C2)cc1 [Example 150],< 100
3,"C=CC(=O)NCC(=O)N1CCC(c2cc3c(-c4cnn5ncccc45)ccnc3[nH]2)C1 (centres unmarked) [Example 152, N-(2-Oxo-2-(3-(4-(pyrazolo[1,5-b]pyridazin-3-yl)-1H-pyrrolo[2,3-b]pyridin-2-yl)pyrrolidin-1-yl)ethyl)acrylamide]",< 100
4,"C=CC(=O)N1CCC[C@H]1C(=O)N1CCC(c2cc3c(-c4cnn5ncccc45)ccnc3[nH]2)C1 (stereo partly drawn) [Example 153, 1-((2S)-2-(3-(4-(Pyrazolo[1,5-b]pyridazin-3-yl)-1H-pyrrolo[2,3-b]pyridin-2-yl)pyrrolidine-1-carbonyl)pyrrolidin-1-yl)prop-2-en-1-one]",< 100
5,"C=CC(=O)N1CCC[C@@H]1C(=O)N1CCC(c2cc3c(-c4cnn5ncccc45)ccnc3[nH]2)C1 (stereo partly drawn) [Example 154, 1-((2R)-2-(3-(4-(Pyrazolo[1,5-b]pyridazin-3-yl)-1H-pyrrolo[2,3-b]pyridin-2-yl)pyrrolidine-1-carbonyl)pyrrolidin-1-yl)prop-2-en-1-one]",< 100
6,"O=C([C@@H]1CCCN1C(=O)CCl)N1CCC(c2cc3c(-c4cnn5ncccc45)ccnc3[nH]2)C1 (stereo partly drawn) [Example 155, 2-Chloro-1-((2S)-2-(3-(4-(pyrazolo[1,5-b]pyridazin-3-yl)-1H-pyrrolo[2,3-b]pyridin-2-yl)pyrrolidine-1-carbonyl)pyrrolidin-1-yl)ethan-1-one]",< 100
7,"O=C(CCl)NCC(=O)N1CCC(c2cc3c(-c4cnn5ncccc45)ccnc3[nH]2)C1 (centres unmarked) [Example 157, 2-Chloro-N-(2-oxo-2-(3-(4-(pyrazolo[1,5-b]pyridazin-3-yl)-1H-pyrrolo[2,3-b]pyridin-2-yl)pyrrolidin-1-yl)ethyl)acetamide]",< 100
8,"O=C(CCl)N1CCC(C(=O)N2CCC(c3cc4c(-c5cnn6ncccc56)ccnc4[nH]3)C2)CC1 (centres unmarked) [Example 158, 2-Chloro-1-(4-(3-(4-(pyrazolo[1,5-b]pyridazin-3-yl)-1H-pyrrolo[2,3-b]pyridin-2-yl)pyrrolidine-1-carbonyl)piperidin-1-yl)ethan-1-one]",< 100
9,"C=CC(=O)N1CCC[C@H]1C(=O)N1CC[C@H](c2cc3c(-c4cnn5ncccc45)ccnc3[nH]2)C1 [Example 162, 1-((S)-2-((S)-3-(4-(Pyrazolo[1,5-b]pyridazin-3-yl)-1H-pyrrolo[2,3-b]pyridin-2-yl)pyrrolidine-1-carbonyl)pyrrolidin-1-yl)prop-2-en-1-one]",< 100
10,"COCCC(=O)Nc1ccccc1C(=O)N1CCC(c2cc3c(-c4cnn5ncccc45)ccnc3[nH]2)C1 (centres unmarked) [Example 163, 3-Methoxy-N-(2-(3-(4-(pyrazolo[1,5-b]pyridazin-3-yl)-1H-pyrrolo[2,3-b]pyridin-2-yl)pyrrolidine-1-carbonyl)phenyl)propanamide Formate Salt]",< 100
11,"C=CC(=O)N1CCOC[C@H]1C(=O)NCCc1cc2c(-c3cnn4ncccc34)ccnc2[nH]1 [Example 165, (S)-4-Acryloyl-N-(2-(4-(pyrazolo[1,5-b]pyridazin-3-yl)-1H-pyrrolo[2,3-b]pyridin-2-yl)ethyl)morpholine-3-carboxamide]",< 100
12,"O=C(NCCc1cc2c(-c3cnn4ncccc34)ccnc2[nH]1)[C@@H]1CCCN1C(=O)C1=CCCC1 [Example 166, (S)-1-(Cyclopent-1-ene-1-carbonyl)-N-(2-(4-(pyrazolo[1,5-b]pyridazin-3-yl)-1H-pyrrolo[2,3-b]pyridin-2-yl)ethyl)pyrrolidine-2-carboxamide]",100 to 1000
13,"CN1CCC(OCc2cc3c(-c4cnn5ncccc45)ccnc3[nH]2)CC1 [Example 167, 3-(2-(((1-Methylpiperidin-4-yl)oxy)methyl)-1H-pyrrolo[2,3-b]pyridin-4-yl)pyrazolo[1,5-b]pyridazine diformate]",1000 to 30000
14,"CN(C)CCOCc1cc2c(-c3cnn4ncccc34)ccnc2[nH]1 [Example 168, N,N-Dimethyl-2-((4-(pyrazolo[1,5-b]pyridazin-3-yl)-1H-pyrrolo[2,3-b]pyridin-2-yl)methoxy)ethan-1-amine Formate]",1000 to 30000
15,"O=C(CCl)Nc1ccccc1C(=O)N1CCC(c2cc3c(-c4cnn5ncccc45)ccnc3[nH]2)C1 (centres unmarked) [Example 169, 2-Chloro-N-(2-(3-(4-(pyrazolo[1,5-b]pyridazin-3-yl)-1H-pyrrolo[2,3-b]pyridin-2-yl)pyrrolidine-1-carbonyl)phenyl)acetamide]",< 100
16,"CCC(=O)Nc1cccc(C(=O)N2CCC(c3cc4c(-c5cnn6ncccc56)ccnc4[nH]3)C2)c1 (centres unmarked) [Example 173, N-(3-(3-(4-(Pyrazolo[1,5-b]pyridazin-3-yl)-1H-pyrrolo[2,3-b]pyridin-2-yl)pyrrolidine-1-carbonyl)phenyl)propionamide]",< 100
